Laboratory results published in the supplement of paper PMC3770661.
Counter-ions that a name gives are not always drawn. ± gives the uncertainty stated by the source.

Tested on: HepG2 (L1.3 5'UTR promoter firefly luciferase reporter)
Assay: L1 promoter activity (FLuc/RLuc) relative to DMSO vehicle control (% of control); higher = stronger L1 promoter activation
Procedure: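 HepG2 cells in 96-well plates were cotransfected with pGL4.11-L1.3 5'UTR (firefly luciferase driven by the human L1.3 5'UTR promoter) and pGL4.74 (HSV-TK Renilla luciferase internal control), then treated with compound for 6 or 24 h. FLuc/RLuc ratio was normalised to the DMSO vehicle control (% of control); concentrations where RLuc fell below 50% of control were excluded (N.D.). Mean of at least two independent experiments in duplicate or quadruplicate.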

[1] = concentration (uM unless unit written): 250, treatment time: 6 h
[2] = concentration (uM unless unit written): 5, treatment time: 6 h
[3] = concentration (uM unless unit written): 5, treatment time: 24 h
[4] = concentration (uM unless unit written): 10, treatment time: 6 h
[5] = concentration (uM unless unit written): 10, treatment time: 24 h
[6] = concentration (uM unless unit written): 20, treatment time: 6 h
[7] = concentration (uM unless unit written): 20, treatment time: 24 h
[8] = concentration (uM unless unit written): 50, treatment time: 6 h
[9] = concentration (uM unless unit written): 50, treatment time: 24 h
[10] = concentration (uM unless unit written): 100, treatment time: 6 h
[11] = concentration (uM unless unit written): 100, treatment time: 24 h
[12] = concentration (uM unless unit written): 250, treatment time: 24 h
[13] = concentration (uM unless unit written): 500, treatment time: 6 h
[14] = concentration (uM unless unit written): 500, treatment time: 24 h
[15] = concentration (uM unless unit written): 1000, treatment time: 6 h
[16] = concentration (uM unless unit written): 1000, treatment time: 24 h
[17] = concentration (uM unless unit written): 200, treatment time: 6 h

What does the source list for `O=C(O)c1ccccc1Nc1cccc(C(F)(F)F)c1` [Flufenamic acid]?
L1 promoter activity (concentration (uM unless unit written): 62.5, treatment time: 6 h): 130 ± 7.7; L1 promoter activity (concentration (uM unless unit written): 62.5, treatment time: 24 h): 158 ± 19; L1 promoter activity (concentration (uM unless unit written): 125, treatment time: 6 h): 119 ± 14; L1 promoter activity (concentration (uM unless unit written): 125, treatment time: 24 h): 120 ± 20; L1 promoter activity [1]: 129 ± 21

Which L1 promoter activity [2] does the source give for `O=c1[nH]cc(F)c(=O)[nH]1` [Fluorouracil] here?
The L1 promoter activity was 110 ± 30.

What about the L1 promoter activity [3] of the same compound?
The L1 promoter activity was 107 ± 18.

And the L1 promoter activity [4]?
Its L1 promoter activity is 109 ± 22.

And the L1 promoter activity [5]?
Its L1 promoter activity is 83.2 ± 4.1.

What about the L1 promoter activity [6] of the same compound?
The L1 promoter activity was 94.5 ± 11.

And the L1 promoter activity [7]?
The L1 promoter activity was 73.4 ± 11.

`CC(C)n1c(/C=C/C(O)CC(O)CC(=O)O)c(-c2ccc(F)cc2)c2ccccc21` (stereo unspecified) [Fluvastatin] was tested. Which L1 promoter activity [2] did it give?
The L1 promoter activity was 126 ± 35.

What about the L1 promoter activity [3] of the same compound?
Its L1 promoter activity is 134 ± 32.

And the L1 promoter activity [4]?
Its L1 promoter activity is 111 ± 32.

And the L1 promoter activity [5]?
Its L1 promoter activity is 102 ± 23.

What about the L1 promoter activity [6] of the same compound?
Its L1 promoter activity is 99.4 ± 19.

What about the L1 promoter activity [7] of the same compound?
Its L1 promoter activity is 109 ± 25.

Which L1 promoter activity (concentration (uM unless unit written): 25, treatment time: 6 h) does the source give for `C=C[C@@]1(C)CC(=O)[C@]2(O)[C@@]3(C)[C@@H](O)CCC(C)(C)[C@@H]3[C@H](O)[C@H](OC(C)=O)[C@@]2(C)O1` [Forskolin] here?
Its L1 promoter activity is 88.6 ± 4.5.

And the L1 promoter activity (concentration (uM unless unit written): 25, treatment time: 24 h)?
Its L1 promoter activity is 59.9 ± 9.

What about the L1 promoter activity [8] of the same compound?
The L1 promoter activity was 85.9 ± 4.

And the L1 promoter activity [9]?
Its L1 promoter activity is 59 ± 6.1.

What about the L1 promoter activity [10] of the same compound?
The L1 promoter activity was 89.2 ± 7.9.

What about the L1 promoter activity [11] of the same compound?
Its L1 promoter activity is 52 ± 4.8.

What does the source list for `NS(=O)(=O)c1cc(C(=O)O)c(NCc2ccco2)cc1Cl` [Furosemide]?
L1 promoter activity [10]: 104 ± 28; L1 promoter activity [11]: 103 ± 24; L1 promoter activity [1]: 97.3 ± 11; L1 promoter activity [12]: 96.2 ± 8.4; L1 promoter activity [13]: 96.9 ± 5.2; L1 promoter activity [14]: 91.2 ± 6.5; L1 promoter activity [15]: 89.1 ± 16; L1 promoter activity [16]: 60.4 ± 2.4

With `Nc1nc2c(ncn2COC(CO)CO)c(=O)[nH]1` [Ganciclovir] as the compound, how does the L1 promoter activity [13] read?
The L1 promoter activity was 109 ± 17.

And the L1 promoter activity [14]?
Its L1 promoter activity is 98.3 ± 6.1.

And the L1 promoter activity [15]?
The L1 promoter activity was 115 ± 16.

What about the L1 promoter activity [16] of the same compound?
The L1 promoter activity was 104 ± 11.

Which L1 promoter activity (concentration (uM unless unit written): 1250, treatment time: 6 h) does the source give for `COc1ccccc1OCC(O)CO` (stereo unspecified) [Guaiacol glyceryl ether] here?
The L1 promoter activity was 123 ± 7.7.

What about the L1 promoter activity (concentration (uM unless unit written): 1250, treatment time: 24 h) of the same compound?
The L1 promoter activity was 99.7 ± 7.2.

What about the L1 promoter activity (concentration (uM unless unit written): 2500, treatment time: 6 h) of the same compound?
Its L1 promoter activity is 136 ± 19.

What about the L1 promoter activity (concentration (uM unless unit written): 2500, treatment time: 24 h) of the same compound?
The L1 promoter activity was 112 ± 19.

And the L1 promoter activity (concentration (uM unless unit written): 5000, treatment time: 6 h)?
The L1 promoter activity was 149 ± 13.

And the L1 promoter activity (concentration (uM unless unit written): 5000, treatment time: 24 h)?
Its L1 promoter activity is 145 ± 15.

Which L1 promoter activity [1] does the source give for `CC(C)Cc1ccc(C(C)C(=O)O)cc1` (stereo unspecified) [Ibuprofen] here?
The L1 promoter activity was 118 ± 8.4.

And the L1 promoter activity [12]?
The L1 promoter activity was 90.8 ± 3.5.

And the L1 promoter activity [13]?
The L1 promoter activity was 99.7 ± 9.8.

What about the L1 promoter activity [14] of the same compound?
The L1 promoter activity was 89.6 ± 10.

And the L1 promoter activity [15]?
The L1 promoter activity was 97.2 ± 8.2.

And the L1 promoter activity [16]?
Its L1 promoter activity is 74.9 ± 7.6.

With `COc1ccc2c(c1)c(CC(=O)O)c(C)n2C(=O)c1ccc(Cl)cc1` [Indometacin] as the compound, how does the L1 promoter activity [1] read?
The L1 promoter activity was 99.1 ± 10.

What about the L1 promoter activity [12] of the same compound?
Its L1 promoter activity is 83 ± 11.

And the L1 promoter activity [13]?
Its L1 promoter activity is 92.6 ± 13.

What about the L1 promoter activity [14] of the same compound?
Its L1 promoter activity is 59.3 ± 6.8.

And the L1 promoter activity [15]?
The L1 promoter activity was 67.2 ± 10.

`NC(=O)CI` [Iodoacetamide] was tested. Which L1 promoter activity (concentration (uM unless unit written): 0.1, treatment time: 6 h) did it give?
The L1 promoter activity was 97.4 ± 9.

And the L1 promoter activity (concentration (uM unless unit written): 0.1, treatment time: 24 h)?
The L1 promoter activity was 103 ± 11.

What about the L1 promoter activity (concentration (uM unless unit written): 1, treatment time: 6 h) of the same compound?
The L1 promoter activity was 101 ± 13.

And the L1 promoter activity (concentration (uM unless unit written): 1, treatment time: 24 h)?
Its L1 promoter activity is 106 ± 16.

What about the L1 promoter activity [2] of the same compound?
Its L1 promoter activity is 117 ± 23.

And the L1 promoter activity [4]?
Its L1 promoter activity is 130 ± 27.

`C[C@H](CCC(=O)O)C[C@H](C)C[C@H](C)C(=O)/C=C(\O)[C@H](C)C[C@H](C)C/C=C/[C@@H](C)[C@@H](O)[C@@H](C)[C@@H](O)C[C@@H]1CC[C@@](C)([C@H]2CC[C@@](C)([C@@H](C)O)O2)O1` [Ionomycin] was tested. Which L1 promoter activity [2] did it give?
The L1 promoter activity was 77.1 ± 5.

What about the L1 promoter activity [3] of the same compound?
The L1 promoter activity was 79.5 ± 15.

What about the L1 promoter activity [4] of the same compound?
Its L1 promoter activity is 60 ± 14.

What about the L1 promoter activity [5] of the same compound?
Its L1 promoter activity is 58.1 ± 11.

What about the L1 promoter activity [6] of the same compound?
The L1 promoter activity was 60.5 ± 11.

What about the L1 promoter activity [7] of the same compound?
Its L1 promoter activity is 36.9 ± 6.4.

What does the source list for `CC(=O)N1CCN(c2ccc(OCC3COC(Cn4ccnc4)(c4ccc(Cl)cc4Cl)O3)cc2)CC1` (stereo unspecified) [Ketoconazol]?
L1 promoter activity [4]: 90.8 ± 12; L1 promoter activity [5]: 82.2 ± 16; L1 promoter activity [6]: 83.5 ± 11; L1 promoter activity [7]: 57.5 ± 15; L1 promoter activity (concentration (uM unless unit written): 40, treatment time: 6 h): 71.4 ± 9.3; L1 promoter activity (concentration (uM unless unit written): 40, treatment time: 24 h): 37.2 ± 4.2

How did the L1 promoter activity [8] turn out when `CN1CCC(=C2c3ccccc3CC(=O)c3sccc32)CC1` [Ketotifen fumarate salt] was run?
Its L1 promoter activity is 90.4 ± 6.5.

And the L1 promoter activity [9]?
Its L1 promoter activity is 89.9 ± 4.6.

And the L1 promoter activity [10]?
Its L1 promoter activity is 92.3 ± 7.8.

And the L1 promoter activity [11]?
The L1 promoter activity was 83.7 ± 8.

What about the L1 promoter activity [17] of the same compound?
Its L1 promoter activity is 80.3 ± 4.5.

What does the source list for `O=C(O)c1nn(Cc2ccc(Cl)cc2Cl)c2ccccc12` [Lonidamine]?
L1 promoter activity [8]: 105 ± 12; L1 promoter activity [9]: 93 ± 8; L1 promoter activity [10]: 87.9 ± 6.3; L1 promoter activity [11]: 105 ± 9.1; L1 promoter activity [17]: 99.9 ± 25; L1 promoter activity (concentration (uM unless unit written): 200, treatment time: 24 h): 91.6 ± 9.5
